Legend:
Format in all cases: in vivo
Set-up in all cases: from tissue; host or cells: in vivo, human subjects
HSD-1 [1] = biological target: T1, HSD-1 (Homo sapiens, UniProt P28845); test: Urinary (tetrahydrocortisol+allotetrahydrocortisol)/tetrahydrocortisone ratio as indicator of HSD-1 activity in clinical trial subjects; settings: for HSD-1 ratio (tetrahydrocortisol [5α + 5β]/tetrahydrocortisone), Day 1 Median / HSD-1 ratio (tetrahydrocortisol [5α + 5β]/tetrahydrocortisone), Day 1 mean: Day 1 single dose; for HSD-1 ratio (tetrahydrocortisol [5α + 5β]/tetrahydrocortisone), Day 1 Median / HSD-1 ratio (tetrahydrocortisol [5α + 5β]/tetrahydrocortisone), Day 1 mean / HSD-1 ratio (tetrahydrocortisol [5α + 5β]/tetrahydrocortisone), Day 18 Mean / HSD-1 ratio (tetrahydrocortisol [5α + 5β]/tetrahydrocortisone), Day 18 Median: 24 h urine; for HSD-1 ratio (tetrahydrocortisol [5α + 5β]/tetrahydrocortisone), Day 18 Mean / HSD-1 ratio (tetrahydrocortisol [5α + 5β]/tetrahydrocortisone), Day 18 Median: Day 18 after daily doses Days 5 through 18
Experimental: Following a minimum of a 10-hour fast, healthy adult racially diverse male and female subjects were administered Compound A (ASP3662) or placebo for Compound A with 240 mL of room temperature water. Subjects continued to fast from any food and drinks (water was allowed as desired except for 1 hour before and 1 hour after study drug administration) until 4 hours after study drug administration. Urine samples were collected for the measurement of cortisol, cortisone, tetrahydrocortisol (5α, 5β) and tetrahydrocortisone. The cumulative amount of each entity excreted in the urine was calculated for each subject from time zero to 24 hours after dosing (Ae24), from 24 hours after dosing to 48 hours after dosing (Ae48), and Aelast.
The ratio of 5α-tetrahydrocortisol+5β-tetrahydrocortisol to urinary tetrahydrocortisone was used as an indicator of HSD-1 activity. Compound A decreased the 5α-tetrahydrocortisol+5β-tetrahydrocortisol to urinary tetrahydrocortisone ratio with increasing dose compared to placebo, resulting in approximately 80% inhibition at 6 mg. […]

HSD-1 [2] = biological target: T1, HSD-1; test: Brain HSD-1 occupancy by PET with [11C]AS2471907 after single dose; settings: for HSD-1 occupancy: single dose 3 mg
Experimental: The level and time course of HSD-1 occupancy following single dose administration of Compound A were assessed in healthy male subjects by positron emission tomography (PET). For each PET scan, [11C]AS2471907 was administered by an intravenous infusion pump, followed by up to 120 minutes of dynamic PET data acquisition. Most subjects underwent two PET scans.

HSD-1 [3] = biological target: T1, HSD-1; test: Direct sigmoidal Emax model of plasma concentration vs brain HSD-1 occupancy (ROIswa); settings: brain HSD-1 occupancy (ROIswa) vs plasma concentration
Experimental: Simulations of brain enzyme occupancy were conducted for several dosing schemes for Compound A that involved both an initial dose and a maintenance dose.
The relationship of Compound A plasma concentrations to region of interest size weighted average (ROIswa) HSD-1 occupancy in brain was best described by a direct sigmoidal Emax model (FIG. 5).

[4] = healthy adult non-Japanese subjects, 20 mg
[5] = healthy adult non-Japanese subjects, 50 mg

T1 sequence (P28845 whole entry): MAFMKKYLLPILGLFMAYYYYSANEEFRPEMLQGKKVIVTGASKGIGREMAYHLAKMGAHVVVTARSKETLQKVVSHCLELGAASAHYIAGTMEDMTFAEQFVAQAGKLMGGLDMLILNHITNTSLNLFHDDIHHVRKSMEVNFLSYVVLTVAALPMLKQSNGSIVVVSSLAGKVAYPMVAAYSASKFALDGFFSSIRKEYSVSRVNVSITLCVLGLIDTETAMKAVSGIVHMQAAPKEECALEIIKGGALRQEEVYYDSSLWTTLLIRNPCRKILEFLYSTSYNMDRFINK

HSD-1 activity (urinary ratio) (HSD-1 [1]; healthy adult non-Japanese subjects, 2 mg, 0.7 mg, 0.4 mg and 0.2 mg cohorts, single dose Day 1 then daily doses): significantly decreased | HSD-1 ratio (tetrahydrocortisol [5α + 5β]/tetrahydrocortisone), Day 1 Median (HSD-1 [1]; [4]): 0.16 | HSD-1 ratio (tetrahydrocortisol [5α + 5β]/tetrahydrocortisone), Day 1 mean (HSD-1 [1]; [4]): 0.17 | HSD-1 ratio (tetrahydrocortisol [5α + 5β]/tetrahydrocortisone), Day 18 Mean (HSD-1 [1]; [4]): 0.12 | HSD-1 ratio (tetrahydrocortisol [5α + 5β]/tetrahydrocortisone), Day 18 Median (HSD-1 [1]; [4]): 0.12 | HSD-1 ratio (tetrahydrocortisol [5α + 5β]/tetrahydrocortisone), Day 1 Median (HSD-1 [1]; [5]): 0.16 | HSD-1 ratio (tetrahydrocortisol [5α + 5β]/tetrahydrocortisone), Day 1 mean (HSD-1 [1]; [5]): 0.16 | HSD-1 ratio (tetrahydrocortisol [5α + 5β]/tetrahydrocortisone), Day 18 Mean (HSD-1 [1]; [5]): 0.11 | HSD-1 ratio (tetrahydrocortisol [5α + 5β]/tetrahydrocortisone), Day 18 Median (HSD-1 [1]; [5]): 0.10 | mean HSD-1 ratio (significantly decreased HSD-1 activity) (HSD-1 [1]; healthy adult non-Japanese subjects, doses of 20 mg and 50 mg, both days 1 and 18): approximately 0.1 | inhibition (decrease of 5α-tetrahydrocortisol+5β-tetrahydrocortisol to urinary tetrahydrocortisone ratio compared to placebo) (HSD-1 [1]; healthy adult subjects, fasted, single dose 6 mg): approximately 80% | Occupancy (ROIswa), PET Scan 1 (HSD-1 [2]; Subject A, 30 mg single dose, 2.62 hrs post dose): 99.68% | Occupancy (ROIswa), PET Scan 2 (HSD-1 [2]; Subject A, 30 mg single dose, 23.75 hrs post dose): 99.71% | Occupancy (ROIswa), PET Scan 1 (HSD-1 [2]; Subject B, 30 mg single dose, 27.43 hrs post dose): 99.97% | Occupancy (ROIswa), PET Scan 2 (HSD-1 [2]; Subject B, 30 mg single dose, 46.75 hrs post dose): 98.83% | Occupancy (ROIswa), PET Scan 1 (HSD-1 [2]; Subject C, 6 mg single dose, 3.25 hrs post dose): 99.73% | Occupancy (ROIswa), PET Scan 2 (HSD-1 [2]; Subject C, 6 mg single dose, 23.74 hrs post dose): 96.20% | Occupancy (ROIswa), PET Scan 1 (HSD-1 [2]; Subject D, 3 mg single dose, 3.27 hrs post dose): 89.91% | Occupancy (ROIswa), PET Scan 2 (HSD-1 [2]; Subject D, 3 mg single dose, 45.25 hrs post dose): 83.15% | Occupancy (ROIswa), PET Scan 1 (HSD-1 [2]; Subject E, 3 mg single dose, 19.2 hrs post dose): 88.16% | Occupancy (ROIswa), PET Scan 2 (HSD-1 [2]; Subject E, 3 mg single dose, 25.43 hrs post dose): 83.85% | Occupancy (ROIswa), PET Scan 1 (HSD-1 [2]; Subject F, 3 mg single dose, 42.19 hrs post dose): 58.87% | Occupancy (ROIswa), PET Scan 2 (HSD-1 [2]; Subject F, 3 mg single dose, 138.67 hrs post dose): 45.49% | Occupancy (ROIswa), PET Scan 1 (HSD-1 [2]; Subject G, 3 mg single dose, 42.46 hrs post dose): 70.96% | Occupancy (ROIswa), PET Scan 2 (HSD-1 [2]; Subject G, 3 mg single dose, 189.15 hrs post dose): 25.61% | Occupancy (ROIswa), PET Scan 1 (HSD-1 [2]; Subject H, 3 mg single dose, 43.85 hrs post dose): 56.39% | Occupancy (ROIswa), PET Scan 2 (HSD-1 [2]; Subject H, 3 mg single dose, 139.36 hrs post dose): 36.31% | Occupancy (ROIswa), PET Scan 1 (HSD-1 [2]; Subject I, 3 mg single dose, 46.24 hrs post dose): 60.92% | Occupancy (ROIswa), PET Scan 1 (HSD-1 [2]; Subject J, 2 mg single dose, 2.84 hrs post dose): <0% | Occupancy (ROIswa), PET Scan 1 (HSD-1 [2]; Subject K, 1 mg single dose, 3.24 hrs post dose): <0% | Occupancy (ROIswa), PET Scan 2 (HSD-1 [2]; Subject K, 1 mg single dose, 20.66 hrs post dose): <0% | Occupancy (ROIswa), PET Scan 1 (HSD-1 [2]; Subject L, 1 mg single dose, 22.55 hrs post dose): <0% | Occupancy (ROIswa), PET Scan 2 (HSD-1 [2]; Subject L, 1 mg single dose, 47.95 hrs post dose): <0% | enzyme occupancy (HSD-1 [2]; single 2 and 1 mg doses): no enzyme occupancy was detected | HSD-1 occupancy (HSD-1 [2]; 19.2-25.43 hours post dose): ~86% | HSD-1 occupancy (HSD-1 [2]; 42.19-46.24 hours post dose): 60-80% | HSD-1 occupancy (HSD-1 [2]; 138.67-139.36 hours post dose): ~40% | HSD-1 occupancy (HSD-1 [2]; 3.25 hours post dose): ~90% | HSD-1 occupancy (HSD-1 [2]; 189.15 hours post dose): 26% | region of interest size weighted average (ROIswa) HSD-1 occupancy (HSD-1 [2]; single doses of 30 and 6 mg, scan times 2.62 to 46.75 hours post dose): > 96% | Hill coefficient, estimate (HSD-1 [3]): 1.53 | Maximum effect, Emax (% HSD-1 occupancy), estimate (HSD-1 [3]): 97.6% | EC50 (HSD-1 [3]; read-out: Plasma concentration when half Emax is achieved, EC50, estimate (converted)): 0.24 nM
SMILES: Cn1c(-c2ccc(C(N)=O)cc2F)nnc1C(C)(C)Oc1c(F)cc(Cl)cc1F [Compound A]
level of inhibition of urinary HSD-1 ratio on increasing the dose (HSD-1 [1]; healthy adult subjects, fasted, single dose above 6 mg): did not substantially increase the level of inhibition
